Data taken from patent US8765791B2, “Method of treating cancer using a neuropeptide Y 5R (NP Y5R) antagonist” (University Health Network, priority 2008, dated 2014).

Legend:
human NPY4R = human NPY4R (Homo sapiens, UniProt P50391); settings: at a concentration of 10 μM; cited from earlier work
[1] = tested on: Hodgkin Lymphoma cells, HD-MYZ; assay: Hodgkin's lymphoma xenograft model, MK-0557 and 200464 (Example 16); assay type: in vivo
Text: Hodgkin lymphoma cells, HD-MYZ, were implanted in NOD-SCID mice, female, 4-6 weeks from Jackson's Laboratory (Maine). The treatments were started day 6 after tumor implantation. The mice were divided to six groups, 4-5 mice from each group. The treatment started with a tumor volume of about 70 mm3 after tumor implantation.

[2] = tested on: Ovarian cancer cells, Caov-3; assay: ovarian cancer xenograft model (Example 10); assay type: in vivo, CB17-SCID mice
Experimental: Ovarian cancer cells, Caov-3 (2 Million), were implanted in CB17-SCID mice. The mice were treated with MK0557 at 30 mg/kg or vehicle (15% of 0.5% of CMC (carboxymethylcellulose, low viscosity) and 85% of 0.2% Tween 80 in water) intraperitoneally daily for the first week followed by once every two days injections. Both the tumor growth and body weights were monitored for the duration of the experiment.

human NPY2R = molecular target: T1, human NPY2R (Homo sapiens, UniProt P49146); settings: at a concentration of 10 μM; cited from earlier work
T1 sequence (P49146 1-381): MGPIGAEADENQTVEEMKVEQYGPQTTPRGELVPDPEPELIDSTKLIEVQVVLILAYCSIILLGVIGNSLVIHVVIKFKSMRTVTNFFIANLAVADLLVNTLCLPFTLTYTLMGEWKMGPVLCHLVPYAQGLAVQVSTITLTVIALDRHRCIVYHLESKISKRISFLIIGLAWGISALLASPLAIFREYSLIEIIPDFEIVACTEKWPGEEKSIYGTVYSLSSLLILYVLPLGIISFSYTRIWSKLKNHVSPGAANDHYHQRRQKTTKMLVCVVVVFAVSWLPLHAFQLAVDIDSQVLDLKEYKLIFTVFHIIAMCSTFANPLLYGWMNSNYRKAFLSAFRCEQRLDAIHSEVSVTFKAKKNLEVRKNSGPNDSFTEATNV

[3] = tested on: Colon cancer cells, HCT-15; assay: colon cancer xenograft model (Example 8); assay type: in vivo, CB17-SCID mice
Experimental: Colon cancer cells, HCT-15, (1×10^6) were implanted in CB17-SCID mice. The mice were treated with MK0557 at 30 mg/kg or vehicle (15% of 0.5%) CMC (carboxymethylcelulose) (low viscosity) and 85% of 0.2% Tween80 in water) intraperitoneally daily for the first week followed by once every two days injections.

[4] = tested on: Hodgkin Lymphoma cells, HD-MYZ; assay: Hodgkin lymphoma xenograft model (Example 5); assay type: in vivo, NOD-SCID mice; settings: 30 mg/kg ip 2/week, to day 36
Experimental: Hodgkin Lymphoma cells, HD-MYZ, (4 million) were injected subcutaneously on the left flank of 10-12 week old, female NOD-SCID mice (from The Jackson Lab, Cat#001303). […] The mice were sacrificed on day 36 when the experiment ended (FIG. 6).

[5] = tested on: Hodgkin Lymphoma cells, HD-MYZ; assay: Hodgkin lymphoma xenograft model (Example 12); assay type: in vivo, NOD-SCID mice; settings: 30 mg/kg i.p. 3/week, approximately 2 weeks
Text: Hodgkin lymphoma cells, HD-MYZ (1 million), were implanted s.c. on the right flank of NOD-SCID mice (Cat#001303, female, 4-6 weeks from Jackson laboratories, Bar Harbor, Me.). The mice were divided into four groups, 5 mice for each group. […] The tumor growth was monitored during the experiment. […] (FIG. 13)

[6] = tested on: Hodgkin Lymphoma cells, HD-MYZ; assay: Hodgkin lymphoma xenograft model, MK0557 vs AVASTIN (Example 14); assay type: in vivo, NOD-SCID mice; settings: for inhibition rate (tumor volume) / inhibition rate (tumor weight): versus vehicle
Text: Hodgkin lymphoma cells, HD-MYZ, were implanted in NOD-SCID mice. […] Tumor volume and tumor growth were monitored during the experiment.

[7] = group 4: MK 0557 30 mg/kg i.p. 3 times for each week, versus vehicle
[8] = 30 mg/kg intraperitoneally daily first week then once every two days
[9] = 15 mg/kg i.p. every day×3 weeks
[10] = 60 mg/kg p.o. every day×3 weeks

Sequence of human NPY4R (P50391 whole entry): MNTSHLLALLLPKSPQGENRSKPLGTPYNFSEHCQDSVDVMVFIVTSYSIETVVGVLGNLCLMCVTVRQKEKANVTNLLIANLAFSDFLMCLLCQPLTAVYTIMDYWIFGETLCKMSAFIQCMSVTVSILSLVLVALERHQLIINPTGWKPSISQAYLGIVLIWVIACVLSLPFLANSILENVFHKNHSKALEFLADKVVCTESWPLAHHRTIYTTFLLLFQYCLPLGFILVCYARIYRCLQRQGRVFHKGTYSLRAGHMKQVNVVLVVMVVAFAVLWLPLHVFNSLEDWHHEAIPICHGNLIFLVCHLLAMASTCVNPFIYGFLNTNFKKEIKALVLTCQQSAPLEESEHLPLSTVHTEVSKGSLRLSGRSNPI

## O=C1O[C@]2(CC[C@H](C(=O)Nc3ccn(-c4ccccc4F)n3)CC2)c2cnccc21 [MK-0557, trans-N-[1-(2-fluorophenyl)-3-pyrazolyl]-3-oxospiro[6 azaisobenzofuran-1(3H), 1′-cyclohexane]-4′carboxamide]
Human NPY4R
  binding to human NPY4R: does not significantly bind
[1]; doses of Example 16, except group 6
  tolerability of the doses by the mice: well tolerated
[1]; group 4: MK 0557 30 mg/kg i.p. 3 times for each week
  Mean Tumor Volume: 435.54+/−72.17 mm^3
[1]; [7]
  inhibition rate (tumor volume): 70.94%
  inhibition rate (tumor weight): 67.30%
[1]; group 4: MK 0557 30 gm/kg i.p. 3 times for each week
  Mean Tumor Weight: 0.3048 ± 0.0696 g
[2]; 30 mg/kg intraperitoneally
  change in body weight: not significantly affected
[2]; [8]
  tumor growth: inhibited tumor growth
Human NPY2R
  binding to human NPY2R: does not significantly bind
[3]; 30 mg/kg intraperitoneally
  effect on mouse body weights: no obvious effect
[3]; [8]
  tumor growth: Tumor growth was inhibited
[4]
  tumor growth: inhibition of tumor growth
[5]
  tumor growth: inhibited tumor growth
[6]; [9]
  Mean Tumor Volume: 698.76±61.19 mm^3
  Mean Tumor Weight: 0.40 ± 0.09 g
  inhibition rate (tumor volume): 73.13%
  inhibition rate (tumor weight): 84.19%
[6]; [10]
  Mean Tumor Volume: 671.97±96.89 mm^3
  Mean Tumor Weight: 0.43 ± 0.17 g
  inhibition rate (tumor volume): 74.16%
  inhibition rate (tumor weight): 83.0%
